Key:
Mushroom Tyrosinase [1] = test: Mushroom Tyrosinase Inhibition Test (Dopa base); assay type: biochemical; settings: Dopa base (L-Dopa 1 mg/mL, pH 6.5); sample solution 2% in water, 100 μL in 900 μL substrate; 3 min, 475 nm
Description: Mushroom Tyrosinase Inhibition Test (Dopa Base):
Preparation: L-Dopa (L-3,4-dihydroxyphenylalanine; 1 mg/mL) was dissolved in pH 6.5 buffer solution. Samples were dissolved in water and prepared the concentration at 2%.
Method: 900 μL of L-Dopa solution was added into 100 μL of sample solution (or blank solution) and measured by thermo spectronic 475 nm (Aso or Ab0). 15 μL of mushroom […] buffer solution was added into mixture. After reaction for 3 min, mixture was measured by thermo spectronic (As3 or Ab3) (FIG. 1).

Mushroom Tyrosinase [2] = test: Mushroom Tyrosinase Inhibition Test (Tyrosine base); assay type: biochemical; settings: Tyrosine base (Tyrosine 5 mg/mL, pH 6.5); sample solution 2% in water, 100 μL in 900 μL substrate; 60 minutes, 492 nm
Description: Mushroom Tyrosinase Inhibition Test (Tyrosine Base): Preparation: Tyrosine (5 mg/mL) were dissolved in pH 6.5 buffer solution. Samples were dissolved in water and prepared the concentration at 2%. Method: 900 μL of Tyrosine solution was added into 100 μL of sample solution (or blank solution) and measured by thermo spectronic 492 nm (Aso or Ab0). 40 μL of mushroom tyrosinase buffer solution was added into mixture. After reaction for 60 minutes, the mixture was measured by thermo spectronic (As60 or Ab60) (FIG. 2). Calculation: [formula]

Water Solubility = assay type: physicochemical; settings: in water

SMILES | Mushroom Tyrosinase Inhibition (Mushroom Tyrosinase [1]) [%] | Mushroom Tyrosinase Inhibition (Mushroom Tyrosinase [2]) [%] | Water Solubility (Water Solubility) [%]
CN(C)CCNC(=O)CCCCCCCC(=O)O [(I), 8-(2-Dimethylamino-ethylcarbamoyl)-octanoic acid] | 74.3 | 82.9 | 
CC(C)N(CCNC(=O)CCCCCCCC(=O)O)C(C)C [(II), 8-(2-Diisopropylamino-ethylcarbamoyl)-octanoic acid] | 45.7 | 77.2 | 22
CN(C)CCCNC(=O)CCCCCCCCC(=O)O [(V), 9-(3-Dimethylamino-propylcarbamoyl) nonanoic acid] | 60.0 | 99.3 | 29
CN(C)CCNC(=O)CCCCCCCCC(=O)O [(IV), 9-(2-Dimethylamino-ethylcarbamoyl)-nonanoic acid] | 50.6 | 84.1 | 17
CN(C)CCCNC(=O)CCCCCCCC(=O)O [(III), 8-(3-Dimethylamino-propylcarbamoyl)-octanoic acid] | 56.3 | 78.4 | 33
O=C(O)CCCCCCCC(=O)O [Azelaic acid, reference compound] |  |  | <0.5

Reference: patent publication US8053474B2, “Compound with carboxyl acid group and amide group and application thereof” (Corum Inc., priority 2009, dated 2011)
